In patent US20230331707A1, “PROGRAMMED CELL NECROSIS INHIBITOR, PREPARATION METHOD THEREFOR, AND USE THEREOF” (Shanghai Institute of Organic Chemistry, Chinese Academy of …, priority 2020, published 2023):
Read-outs that look alike come from different tables or passages of the source.

Experiments:
FADD−/− Jurkat cells = assay: Inhibition of TNF-induced programmed necrosis of FADD deficient Jurkat cells (Cell Titer-Glo viability); type: cell-based; conditions: for EC50: Homo sapiens, Jurkat, FADD−/− Jurkat cells; for activity of inhibition of programmed necrosis compared with GSK2982772: human FADD-deficient Jurkat cells, TNFα alone or in combination with SM164
Method in brief: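 FADD-deficient human Jurkat T leukemia cells in log phase were adjusted to 2.5×10^5/mL and plated at 40 μl per well in 384-well plates. Compounds were added, with SM164 (50 nM) where used, for a 1 h pretreatment at 37° C. TNFα (50 ng/mL) was then added, and cells were incubated 14 h at 37° C, 5% CO2. Viability was read as ATP luminescence with Cell Titer-Glo after 30 min at room temperature, with unstimulated DMSO wells set as 100%. EC50 values were calculated in Prism Graphpad.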

L929 cells = assay: Inhibition of TNF-induced programmed necrosis of L929 cells (Cell Titer-Glo viability); type: cell-based, mouse; conditions: for EC50: Mus musculus, L929, L929 cells
Method in brief: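 Mouse L929 fibroblasts were diluted to 6.25×10^4/ml, plated at 40 μl per well in 384-well plates, and incubated 12 hours at 37° C., 5% CO2. Compounds were added, with SM164 (500 nM) for the combination arm, and pretreated 1 h before TNFα (500 ng/mL). After 14 h, viability was read by Cell Titer-Glo luminescence against unstimulated DMSO controls, and EC50 values were fitted in Prism Graphpad.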

[1] = test system: RIPK1^K612R/K612R mutant mice; assay: Digestive system inflammation in RIPK1 K612R/K612R mutant mice; type: in vivo; conditions: gavage 25 mg/kg, control Nec-1s 50 mg/kg
Text: The adopted biological test scheme was: RIPK1^K612R/K612R mutant mice were used as model mice to test the effect of representative compound QY-10-40 or QY-13-19 on spontaneous intestinal inflammation.
K612R mutation leads to decreased in intracellular RIPK1 level but abnormal activation, making it sensitive to programmed necrosis and caspase-1 activation, and responding to TLRs signaling. RIPK1^K612R/K612R mice will appear responses such as age-dependent reduced RIPK1 expression and abnormal activation, spontaneous intestinal inflammation and splenomegaly.
Methods: The compounds to be tested were dissolved in 0.5% carboxymethyl cellulose according to the required concentration one day in advance, and sonicated overnight. Mice were gavaged in a volume of 0.1 ml/10 g body weight. Body weight was measured three times a week, and samples were collected at the end of the experiment. The effect of the compounds was calculated using Prism Graphpad statistical software.

[2] = test system: MEFs cells expressing RIPK1 WT; assay: TSZ-induced programmed necrosis in MEFs cells expressing RIPK1 WT; type: cell-based, mouse; conditions: 600 nM
Text: (§1) The adopted biological test protocol was: the effect of compounds on programmed necrosis in MEFs cells (mouse embryonic fibroblasts) with RIPK1 S161E mutation.
(§2) In order to verify the inhibitory effect of the compound of the present invention on the highly activated RIPK1 kinase at the cellular level, MEFs cells stably expressing RIPK1 S161E (simulating the activation state of RIPK1 after phosphorylation) were selected, TNFα-SM164-zVAD (Caspase inhibitor for inhibiting apoptosis) (TSZ) was used in combination to induce programmed cell necrosis, and cell viability was calculated by detecting chemiluminescence values, thereby obtaining the biological activity of the compound in inhibiting programmed necrosis.
(§3) Methods: MEFs cells replenished by RIPK1: WT-RIPK1, S161A-RIPK1 and S161E-RIPK1 were replenished in RIPK1 stable knockout cells respectively. After stable expression and being cultured to logarithmic growth phase, the cells were collected, and centrifuged at 1000 rpm for 5 min. The supernatant was discarded. Cell concentration was adjusted to 5×10^4/mL, and cells were inoculated into 384-well plates with 40 μL per well. Cell culture medium diluted SM164 (100 nM), zVAD (50 μM) and compound, each […], were added to the corresponding wells. After pretreatment at 37° C. for 1 h, 5 μL of cell culture medium diluted TNF (50 ng/mL) was added to each well in the stimulated group and 5 μL of culture medium was added to the control group. […] The unstimulated DMSO control wells (Ctrl) were taken as 100% cell viability. EC50 values of the compounds were calculated using Prism Graphpad statistical software.

[3] = test system: MEFs cells expressing RIPK1 S161E mutant; assay: TSZ-induced programmed necrosis in MEFs cells expressing RIPK1 S161E mutant; type: cell-based, mouse; conditions: 600 nM
Text: as §1, §2, §3

[4] = 14 h, stimulated with TNFα + SM164, read-out: EC50 (μM) FADD−/− Jurkat cells (human) TNFα + SM164
[5] = stimulated with TNFα alone, read-out: EC50 (μM) FADD−/− Jurkat cells (human) TNFα
[6] = stimulated with TNFα + SM164, read-out: EC50 (μM) L929 cells (mouse) TNFα + SM164
[7] = stimulated with TNFα alone, read-out: EC50 (μM) L929 cells (mouse) TNFα

| SMILES | EC50 (FADD−/− Jurkat cells; [4]) | EC50 (FADD−/− Jurkat cells; [5]) | activity of inhibition of programmed necrosis compared with GSK2982772 (FADD−/− Jurkat cells) | EC50 (L929 cells; [6]) | EC50 (L929 cells; [7]) | effect on body weight and spleen coefficient [1] | inhibition of programmed necrosis (in words) (L929 cells; mouse-derived L929 cells) | inhibition of programmed necrosis [2] | inhibition of programmed necrosis [3] |
| --- | --- | --- | --- | --- | --- | --- | --- | --- | --- |
| Cn1nnc(C(=O)NCc2ccc(-n3cnc4c(N)ncnc43)cc2)c1Cc1ccccc1 [QY-13-19, N-(4-(6-amino-9H-purin-9-yl)benzyl)-5-benzyl-1-methyl-1H-1,2,3-triazole-4-carboxamide] | 0.516 nM | 0.0557 nM | stronger activity | 3.09 nM | 1.46 nM | can inhibit the effect of the digestive system inflammation |  |  |  |
| COc1cc2ncn(-c3ccc(CNC(=O)c4cnn(C)c4Cc4ccccc4)cc3)c2cc1OC [QY-11-76] | 0.05 nM | 0.0243 nM | stronger activity | 0.432 nM | 0.0598 nM |  | excellently inhibit the occurrence of programmed necrosis | can effectively inhibit the occurrence of programmed necrosis | can significantly inhibit occurrence of programmed necrosis |
